For one data set, the system named is Matricaria chamomita. Nature of the data set: Field trial, herbicidal action (Table 4). As to conditions: post-emergence application in the 4-leaf stage, scoring 28 days after post-emergence application. It is filed as in vivo. How it is done:
(§1) Transgenic oil-seed rape plants with resistance to one or more herbicides (A) were grown together with typical weed plants in the open in 2×5 m plots under natural field conditions; alternatively, the weed population established naturally while the oil-seed rape plants grew. Treatment with the compositions according to the invention and, for control purposes, with separate application of the active ingredients of the components alone, was carried out under standard conditions with a plot sprayer at an application rate of 200-300 liters of water per hectare in parallel trials in accordance with the scheme of Table 1, i.e. pre-sowing/pre-emergence, post-sowing/-pre-emergence or post-emergence at the early, medium or late stage.
(§2) At 2, 4, 6 and 8 week intervals after application, the herbicidal activity of the active ingredients or active ingredient mixtures were scored visually by comparing the treated plots with untreated control plots. Damage and development of all aerial plant organs was recorded. The scoring was done using a percentage scale (100% activity=all plants dead; 50% activity=50% of the plants and green plant organs dead; 0% activity=no discernible effect=like control plot). The score values of in each case 4 plots were averaged.

Another data set deals with Chenopodium album. Briefly: Field trial, herbicidal action (Table 5). It is filed as in vivo. As to conditions: application in the 4-leaf stage, scoring 15 days after application. As to the method:
as §1, §2

The next data set deals with Cirsium arvense. Briefly: Field trial, herbicidal action (Table 5). Particulars: application in the 4-leaf stage, scoring 15 days after application. It is filed as in vivo. How it is done: as §1, §2
The next data set deals with Oil-seed rape LL. Briefly: Field trial, crop plant tolerance. Particulars: crop damage. It is filed as in vivo, Liberty-Link oil-seed rape. How it is done: Transgenic oil-seed rape plants with resistance to one or more herbicides (A) were grown together with typical weed plants in the open in 2×5 m plots under natural field conditions; alternatively, the weed population established naturally while the oil-seed rape plants grew.
Damage and development of all aerial plant organs was recorded. […] The score values of in each case 4 plots were averaged.

The next data set has as its system Datura stramonium. Nature of the data set: Oil-seed rape field trial, herbicidal action (Table 2). The class given is in vivo. As to conditions: application in the 5-leaf stage, scoring 3 weeks after application. As to the method:
as §1
[…] Damage and development of all aerial plant organs was recorded. The scoring was done using a percentage scale (100% activity=all plants dead; 50% activity=50% of the plants and green plant organs dead; 0% activity=no discernible effect=like control plot). The score values of in each case 4 plots were averaged.

Another data set has as its system Galium aparine. Nature of the data set: Oil-seed rape field trial, herbicidal action (Table 3). It is filed as in vivo. As to conditions: application in the 4-5 leaf stage, scoring 36 days after application. As to the method: as §1, §2

The structures appear in SMILES notation. Counter-ions that a name gives are not always drawn.

Consider `CCCCCCCCSC(=O)Oc1cc(Cl)nnc1-c1ccccc1` [(B2.3), O-(6-chloro-3-phenylpyridazin-4-yl) S-octyl thiocarbonate], for which the “Herbicidal action % against Matricaria chamomita” value (“Herbicidal action %” for short) in the data set on Matricaria chamomita (600 g of A.S./ha) was determined as 60%.

Take `Cc1cnc2c(C(=O)O)c(Cl)ccc2c1` [(B2.1), 7-chloro-3-methylquinoline-8-carboxylic acid]: in the data set on Matricaria chamomita (300 g of A.S./ha), the “Herbicidal action %” value is 50%.

In the case of `O=C(O)c1nc(Cl)ccc1Cl` [(B2.2), 3,6-dichloropyridine-2-carboxylic acid], the “Herbicidal action (%) against Chenopodium album” value in the data set on Chenopodium album (90 g of A.S./ha) was 50%. Moreover, the “Herbicidal action (%) against Cirsium arvense” value with Cirsium arvense (90 g of A.S./ha) came out at 85%. Moreover, in the data set on Oil-seed rape LL (90 g of A.S./ha, 4-leaf stage, scoring 15 days after application), the “Oil-seed rape LL” value stood at 0%.

For `CP(=O)(O)CCC(N)C(=O)O` (stereo not shown) [(A1.2), glufosinate monoammonium salt], the “Herbicidal action (%) against Datura stramonium” value in the data set with Datura stramonium (600 g of A.S./ha) was 90%. For the same compound, the “Herbicidal action (%) against Chenopodium album” value in the data set on Chenopodium album (230 g of A.S./ha) is reported as 90%. Further, the “Herbicidal action (%) against Cirsium arvense” value in the data set with Cirsium arvense (230 g of A.S./ha) came to 85%; in the data set with Cirsium arvense (350 g of A.S./ha), 97%. The results for the “Herbicidal action (%) against Galium aparine” value in the data set with Galium aparine (125 g of A.S./ha), with Galium aparine (250 g of A.S./ha) and with Galium aparine (500 g of A.S./ha) were 15%, 41% and 63%, respectively. Moreover, the results for the “Herbicidal action %” value in the data set with Matricaria chamomita (125 g of A.S./ha), in the data set with Matricaria chamomita (250 g of A.S./ha) and in the data set with Matricaria chamomita (500 g of A.S./ha) were 10%, 35% and 65%, respectively. The “Oil-seed rape LL” value came out at 0% in the data set on Oil-seed rape LL (125 g of A.S./ha, 4-5 leaf stage, scoring 36 days after application); 0% with Oil-seed rape LL (230 g of A.S./ha, 4-leaf stage, scoring 15 days after application); 0% with Oil-seed rape LL (250 g of A.S./ha, 4-5 leaf stage, scoring 36 days after application); 0% with Oil-seed rape LL (350 g of A.S./ha, 4-leaf stage, scoring 15 days after application); 3% in the data set on Oil-seed rape LL (500 g of A.S./ha, 4-5 leaf stage, scoring 36 days after application).

In the case of `CCOc1nc(NC)nc(NC(=O)NS(=O)(=O)c2ccccc2C(=O)OC)n1` [(B2.4), methyl 2-{N-[N-(4-ethyox-6-methylamino-1,3,5-triazin-2-yl)aminocarbonyl]aminosulfonyl}benzoate], in the data set with Chenopodium album (15 g of A.S./ha), the “Herbicidal action (%) against Chenopodium album” value was determined as 30%. Besides, the “Herbicidal action (%) against Cirsium arvense” value with Cirsium arvense (15 g of A.S./ha) came to 0%. Also, in the data set with Oil-seed rape LL (15 g of A.S./ha, 4-leaf stage, scoring 15 days after application), the “Oil-seed rape LL” value is 0%.

On to `Cc1cccc(C)c1N(Cn1cccn1)C(=O)CCl` [(B1.1), 2-chloro-N-(2,6-dimethylphenyl)-N-(1H-pyrazol-1-ylmethyl)acetanilide], for which the “Herbicidal action (%) against Datura stramonium” value with Datura stramonium (600 g of A.S./ha) stood at 40%; in the data set with Datura stramonium (1200 g of A.S./ha), 93%.
